Tested on: HSTS26T tumors
Test: IgG diffusion by fluorescence recovery after photobleaching (FRAP)
Type: in vivo, SCID mice
Protocol: FIG. 9 is a bar graph showing the changes in diffusion coefficient in HSTS26T tumors after losartan treatment. The diffusion coefficient of IgG was measured in HSTS26T tumors implanted in the dorsal window chamber of SCID mice. Treated animals received (40 mg/kg/day) losartan by i.p. injection while control animals received saline.
Based on the previous studies on the tumor interstitial matrix (Pluen A, et al. (2001) Proc Natl Acad Sci USA 98:4628-4633 and Brown E, et al. (2003) Nat Med 9:796-800), the inventors then sought to determine if a decrease in collagen content by Losartan can improve the intratumoral distribution of nanoparticles. The inventors therefore measured the intratumoral distribution of fluorescent polystyrene nanoparticles (100 nm diameter) in three different tumor types—HSTS26T, Mu89, and L3.6 pl—after an i.t. or i.v. injection. […] The inventors also determined the effects of losartan on the intratumoral distribution of oncolytic HSV.
Mice with HSTS26T tumors implanted in a dorsal skin fold chamber were treated with i.p. injections of losartan (40 mg/kg/day) for 1 week. Fluorescence recovery after photobleaching (FRAP) measurements were done with a custom built multiphoton microscope based on a previously described protocol (Chauhan V P, et al. (2009) Biophys J 97:330-336). […] Matrix pore sizes were calculated using the SFA-FRAP data, using the equation […]

In the case of `CCCCc1nc(Cl)c(CO)n1Cc1ccc(-c2ccccc2-c2nn[nH]n2)cc1` [losartan], the “diffusion coefficient of IgG” value (40 mg/kg/day i.p., multiphoton FRAP) is reported as “significant increase” and the “mean interstitial matrix pore radius” value (calculated from IgG diffusion data, control 9.91±0.43 nm) is reported as 11.78±0.41 nm.

— US20130287688A1, “NOVEL COMPOSITIONS AND USES OF ANTI-HYPERTENSION AGENTS FOR CANCER THERAPY” (XTUIT PHARMACEUTICALS, INC., priority 2010, published 2013)
